Columns and labels:
Format in all cases: in vivo
[1] = tested on: Aedes aegypti strain MONHEIM; assay: Aedes aegypti test (AEDSAE surface treatment & contact assay); conditions: 24 hours after contact, read-out: efficacy (mortality); for mortality at 4 mg/m2: surface concentration 4 mg/m^2, exposure 30 minutes; for mortality at 20 mg/m2: surface concentration 20 mg/m^2, exposure 30 minutes
Method in brief: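 Compound in acetone (2 mg/ml) with 2000 ppm RME pipetted onto glazed tile and dried; adult Aedes aegypti MONHEIM exposed 30 min. Percent mortality scored 24 h after contact.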

[2] = tested on: adult unfed cat fleas (Ctenocephalides felis); assay: Ctenocephalides felis oral test; conditions: 48 h, read-out: activity (mortality)
Method in brief: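 About 20 adult unfed fleas fed through parafilm on cattle blood containing compound (DMSO stock diluted in blood), blood held at 37 °C and fleas at room temperature. Mortality (%) scored after 2 days.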

[3] = tested on: Culex quinquefasciatus strain P00; assay: Culex quinquefasciatus test (CULXFA surface treatment & contact assay); conditions: 24 hours after contact, read-out: efficacy (mortality); for mortality at 4 mg/m2: surface concentration 4 mg/m^2, exposure 30 minutes; for mortality at 20 mg/m2: surface concentration 20 mg/m^2, exposure 30 minutes
Experimental: Culex quinquefasciatus Test (CULXFA Surface Treatment & Contact Assay)
(§1) Solvent: Aceton+2000 ppm rapeseed oil methyl ester (RME)
(§2) In order to produce a sufficient, active ingredient containing solution it is necessary to solve the test compound in the solvent-mix (acetone at 2 mg/ml/RME 2 000 ppm). This solution is pipetted onto a glazed tile and after evaporation of the acetone, adult mosquitoes of the species Culex quinquefasciatus strain P00 are placed onto the dried surface. The exposure time is 30 minutes. Mortality in percent (%) is determined 24 hours after contact of the insects to the treated surface. 100% mortality means that all tested insects are dead, whereas 0% means that no insect died.

[4] = tested on: Rhipicephalus microplus larvae (strain Parkhurst, resistant against synthetic pyrethroids); assay: Rhipicephalus (Boophilus) microplus in-vitro contact test, larval cattle tick; conditions: after 48 hours, read-out: activity (efficacy: larvae dead or moribund); for pest or weed control at 100 g/ha: application rate 1 pg/cm^2 (=100 g/ha); for pest or weed control at 500 g/ha: application rate 5 pg/cm^2 (=500 g/ha)
Method in brief: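 Acetone solutions coated onto inner walls of glass tubes by rotation (900 ppm giving 5 μg/cm^2); after evaporation, 20-50 larvae added per tube and held at 27° C., 85% relative humidity. Efficacy read after 48 h from negative geotactic behaviour; 100% = all larvae dead or moribund.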

[5] = tested on: fall armyworm larvae (Spodoptera frugiperda); assay: Spodoptera frugiperda spray test; conditions: 168 h, read-out: activity (mortality)
Method in brief: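 Compound in acetone/DMF, diluted in water with 1000 ppm alkylarylpolyglycol ether emulsifier, sprayed on maize leaf sections. Dried leaves infested with fall armyworm larvae; % mortality after 7 days (100% = all killed, 0% = none).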

[6] = tested on: adult engorged female ticks (Rhipicephalus microplus); assay: Rhipicephalus (Boophilus) microplus injection test; conditions: 168 h, egg deposition after 7 days, read-out: activity (efficacy: infertile eggs); for pest or weed control at 4 pg: application rate 4 pg/animal; for pest or weed control at 0.02 mg: application rate 20 μg/animal
Method in brief: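 Efficacy is scored from egg fertility, with 100% meaning every egg infertile and 0% every egg fertile. Five engorged females per test received 1 μL DMSO solution abdominally. Eggs of unclear fertility were kept until hatching, about 42 days.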

[7] = tested on: larvae of the banded cucumber beetle (Diabrotica balteata); assay: Diabrotica balteata spray test; conditions: 168 h, after 7 days, read-out: activity (efficacy: seedlings grown); for pest or weed control at 100 g/ha: application rate 100 g/ha (=32 pg/well); for pest or weed control at 500 g/ha: application rate 500 g/ha (=160 pg/well)
Method in brief: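 Wheat seedlings, germinated 1 day on agar (5 seeds/well), sprayed with active compound in acetone/DMF diluted in water containing 1000 ppm emulsifier, then infested with 10-20 D. balteata larvae. Efficacy (%) scored after 7 days: 100% = seedlings grown as untreated uninfested control, 0% = no seedlings grown.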

[8] = tested on: Musca domestica strain WHO-N; assay: Musca domestica test (MUSCDO surface treatment & contact assay); conditions: surface concentration 20 mg/m^2, exposure 30 minutes, 24 hours after contact, read-out: efficacy (mortality)
Experimental: Musca domestica Test (MUSCDO Surface Treatment & Contact Assay)
as §1
In order to produce a sufficient, active ingredient containing solution it is necessary to solve the test compound in the solvent-mix (acetone at 2 mg/ml/RME 2000 ppm). This solution is pipetted onto a glazed tile and after evaporation of the acetone, adult flies of the species Musca domestica strain WHO—N are placed onto the dried surface. The exposure time is 30 minutes. Mortality in percent (%) is determined 24 hours after contact of the insects to the treated surface. 100% mortality means that all tested insects are dead, whereas 0% means that no insect died.

[9] = tested on: Anopheles funestus strain FUMOZ-R; assay: Anopheles funestus test (ANPHFU surface treatment & contact assay); conditions: 24 hours after contact, read-out: efficacy (mortality); for mortality at 4 mg/m2: surface concentration 4 mg/m^2, exposure 30 minutes; for mortality at 20 mg/m2: surface concentration 20 mg/m^2, exposure 30 minutes
Experimental: Anopheles funestus Test (ANPHFU Surface Treatment & Contact Assay)
as §1
as §2, with “2000” for “2 000”, “Anopheles funestus” for “Culex quinquefasciatus”, “FUMOZ-R (Hunt et al., Med. Vet. Entomol. 2005 September; 19(3): 271-275)” for “P00”

[10] = tested on: adult brown dog ticks (Rhipicephalus sanguineus); assay: Rhipicephalus sanguineus in-vitro contact test, adult brown dog ticks; conditions: after 48 hours, read-out: activity (efficacy: ticks dead or moribund); for pest or weed control at 100 g/ha: application rate 1 pg/cm^2 (=100 g/ha); for pest or weed control at 5 µg/cm2, 500 g/ha: application rate 5 μg/cm^2 (=500 g/ha)
Method in brief: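 Efficacy (%) reflects the fraction of adult ticks dead or moribund after 48 h of contact with a dried acetone film on tube walls at 5 μg/cm^2 (from 900 ppm). Moribund status was assessed by inability to climb away from heat at 45-50° C.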

[11] = tested on: adult cat fleas (Ctenocephalides felis); assay: Ctenocephalides felis in-vitro contact test, adult cat flea; conditions: application rate 5 μg/cm^2 (=500 g/ha), after 48 hours, read-out: activity (efficacy: fleas dead or moribund)
Method in brief: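 Acetone solutions of compound coated onto inner walls of glass tubes (900 ppm giving […]); after drying, 5-10 adult Ctenocephalides felis added and held at room temperature. At 48 h, fleas placed on a 45-50° C heating plate; those unable to climb away scored dead or moribund, expressed as % efficacy.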

[12] = tested on: green peach aphid (Myzus persicae); assay: Myzus persicae spray test; conditions: 120 h, after 5 days; for mortality at 500 g/ha: application rate 500 g/ha; for mortality at 100 g/ha: application rate 100 g/ha
Method in brief: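 Chinese cabbage leaf disks carrying all instars of M. persicae sprayed with compound in acetone/DMF, diluted in water with 1000 ppm alkylarylpolyglycol ether emulsifier. Percent mortality scored after 5 days (100% = all aphids killed).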

[13] = tested on: larvae of the southern green stink bug (Nezara viridula); assay: Nezara viridula spray test; conditions: 96 h, after 4 days
Method in brief: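 Compound in acetone/dimethylformamide, diluted in water with 1000 ppm alkylarylpolyglycol ether emulsifier, sprayed onto barley plants carrying stink bug larvae. Mortality (%) scored after 4 days, 100% meaning all insects killed.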

[14] = tested on: green peach aphid (Myzus persicae); assay: Myzus persicae oral test; conditions: 120 h, application rate 4 ppm, after 5 days
Method in brief: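 Acetone stock (1 pbw compound/100 pbw solvent) diluted in water; mixed with sugar-supplemented IPL41 medium; parafilm-sealed; mixed aphid population sucks through film; mortality % read at 5 d.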

[15] = tested on: brown planthopper (Nilaparvata lugens); assay: Nilaparvata lugens spray test; conditions: 96 h, application rate 500 g/ha, after 4 days
Experimental: Nilaparvata lugens—Spray Test
Solvent: 78.0 parts by weight of acetone • • 1.5 parts by weight of dimethylformamide
Emulsifier: alkylarylpolyglycol ether
To produce a suitable preparation of active compound, 1 part by weight of active compound is mixed with the stated amount of solvents and is diluted with water, containing an emulsifier concentration of 1000 ppm, to the desired concentration. Further test concentrations are prepared by dilution with emulsifier containing water.
Rice plants (Oryza sativa) are sprayed with a preparation of the active ingredient of the desired concentration and the plants are infested with the brown planthopper (Nilaparvata lugens).
After 4 days mortality in % is determined. 100% means all planthoppers have been killed and 0% means none of the planthoppers have been killed.

Structure (SMILES)	mortality at 4 mg/m2 [1]	mortality at 20 mg/m2 [1]	mortality at 100 ppm [2]	mortality at 4 mg/m2 [3]	pest or weed control at 100 g/ha [4]	pest or weed control at 500 g/ha [4]	mortality at 100 g/ha [5]	mortality at 500 g/ha [5]	pest or weed control at 4 pg [6]	pest or weed control at 0.02 mg [6]	pest or weed control at 100 g/ha [7]	pest or weed control at 500 g/ha [7]	mortality at 4 mg/m2 [9]	pest or weed control at 100 g/ha [10]	pest or weed control at 5 µg/cm2, 500 g/ha [10]	pest or weed control at 5 µg/cm2 [11]	further results
C[C@H](NC(=O)c1cc(Cl)cc(S(=O)(=O)C(F)F)c1)c1ncnn1-c1ccc(Cl)cn1 [II-37]	80 to 100%	80 to 100%	100%	80 to 100%	100%	100%	100%	100%	100%	100%	100%	100%	–	–	–	–	mortality at 20 mg/m2 [3]: 80 to 100%; mortality at 20 mg/m2 [8]: 80 to 100%
C[C@H](NC(=O)c1cncc(C2CC2)c1)c1ncnn1-c1ccc(C#N)cn1 [II-1]	80 to 100%	–	–	–	–	–	–	100%	–	–	–	–	80 to 100%	–	–	–	–
C[C@H](NC(=O)c1csc(Cl)c1)c1ncnn1-c1ncccn1 [II-30]	80 to 100%	80 to 100%	100%	–	100%	100%	–	–	100%	100%	–	100%	80 to 100%	100%	100%	90%	mortality at 500 g/ha [12]: 90%
Cc1nc([C@H](C)NC(=O)c2csc(Cl)c2)n(-c2ccc(C#N)cn2)n1 [II-8]	80 to 100%	80 to 100%	100%	–	100%	100%	83%	100%	80%	100%	100%	100%	–	–	–	100%	mortality at 20 mg/m2 [9]: 80 to 100%
CC(NC(=O)c1cc(Cl)cc(S(C)(=O)=O)c1)c1nc(Cl)nn1-c1ncccn1 (racemic) [I-29, 3-chloro-N-[1-(5-chloro-2-pyrimidin-2-yl-1,2,4-triazol-3-yl)ethyl]-5-methylsulfonyl-benzamide]	80 to 100%	80 to 100%	–	–	–	–	–	–	–	–	100%	–	80 to 100%	–	–	–	mortality at 20 mg/m2 [9]: 80 to 100%; mortality at 100 g/ha ([13]; application rate 100 g/ha): 90%; mortality at 4 ppm [14]: 100%; mortality at 100 g/ha [12]: 90%
COc1nc([C@H](C)NC(=O)c2cc(C(F)F)cc(S(C)(=O)=O)c2)n(-c2ncc(Cl)cn2)n1 [I-88]	–	–	–	–	–	–	–	–	–	–	100%	–	–	–	–	–	mortality at 500 g/ha ([13]; application rate 500 g/ha): 100%; mortality at 500 g/ha [15]: 100%
C[C@H](NC(=O)c1cc(C(F)(F)F)cc(S(=O)(=O)C2CC2)c1)c1ncnn1-c1ccc(Cl)cn1 [II-46]	80 to 100%	80 to 100%	90%	80 to 100%	100%	100%	100%	–	100%	100%	100%	–	–	100%	80%	–	mortality at 20 mg/m2 [8]: 80 to 100%
Cc1nc([C@H](C)NC(=O)c2cc(C)n(C)n2)n(-c2ccc(C#N)cn2)n1 [II-6]	80 to 100%	80 to 100%	100%	80 to 100%	–	–	–	100%	100%	100%	–	100%	–	80%	100%	100%	mortality at 20 mg/m2 [3]: 80 to 100%; mortality at 100 g/ha [12]: 90%; mortality at 500 g/ha [12]: 90%

From US20260206761A1, “HETEROARYL-TRIAZOLE COMPOUNDS AS PESTICIDES” (Bayer Aktiengesellschaft, priority 2019, published 2026)
